ChEMBL document CHEMBL3526000 (Drug Metab Dispos, 2012)

Columns and labels:
[1] = molecular target: T1, UDP-glucuronosyltransferase 1A10 (Homo sapiens, UniProt Q9HAW8); assay: Drug metabolism assessed as recombinant human UGT1A10 assessed as N-glucuronidation at 100 uM incubated for 60 mins by LC-MS/MS analysis; format: ADME; conditions: recombinant enzyme, 1 h
T1 sequence (Q9HAW8 whole entry): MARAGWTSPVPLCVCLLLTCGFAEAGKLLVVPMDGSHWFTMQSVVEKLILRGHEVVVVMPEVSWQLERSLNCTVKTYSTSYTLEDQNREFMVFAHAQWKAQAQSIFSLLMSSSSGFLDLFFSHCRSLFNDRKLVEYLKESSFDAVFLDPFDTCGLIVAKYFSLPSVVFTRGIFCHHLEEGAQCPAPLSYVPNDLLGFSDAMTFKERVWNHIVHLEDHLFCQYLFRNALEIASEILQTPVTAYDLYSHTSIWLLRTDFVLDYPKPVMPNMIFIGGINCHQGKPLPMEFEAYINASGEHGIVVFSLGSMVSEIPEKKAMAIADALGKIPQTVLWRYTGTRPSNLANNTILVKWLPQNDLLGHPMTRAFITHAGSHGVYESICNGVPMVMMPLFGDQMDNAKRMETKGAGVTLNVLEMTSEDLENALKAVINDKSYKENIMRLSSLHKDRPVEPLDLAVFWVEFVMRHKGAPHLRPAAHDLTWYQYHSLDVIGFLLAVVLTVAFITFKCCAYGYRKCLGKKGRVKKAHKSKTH

[2] = molecular target: T2, UDP-glucuronosyltransferase 1A8 (Homo sapiens, UniProt Q9HAW9); assay: Drug metabolism assessed as recombinant human UGT1A8 assessed as O-glucuronidation at 100 uM incubated for 60 mins by LC-MS/MS analysis; format: ADME; conditions: recombinant enzyme, 1 h
T2 sequence (Q9HAW9 whole entry): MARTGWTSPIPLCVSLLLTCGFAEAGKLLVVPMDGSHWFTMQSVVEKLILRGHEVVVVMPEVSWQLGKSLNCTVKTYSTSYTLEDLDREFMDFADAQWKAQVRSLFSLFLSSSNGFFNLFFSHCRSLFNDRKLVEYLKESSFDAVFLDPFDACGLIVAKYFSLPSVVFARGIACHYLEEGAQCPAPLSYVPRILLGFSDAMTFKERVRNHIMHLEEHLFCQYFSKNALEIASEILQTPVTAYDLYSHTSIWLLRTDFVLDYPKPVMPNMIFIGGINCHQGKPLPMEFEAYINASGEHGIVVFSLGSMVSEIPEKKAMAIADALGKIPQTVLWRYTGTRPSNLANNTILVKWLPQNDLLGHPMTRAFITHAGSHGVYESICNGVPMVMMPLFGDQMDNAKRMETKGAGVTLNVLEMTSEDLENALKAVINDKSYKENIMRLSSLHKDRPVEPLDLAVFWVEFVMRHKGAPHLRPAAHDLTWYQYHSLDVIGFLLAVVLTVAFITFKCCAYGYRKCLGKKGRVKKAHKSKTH

[3] = molecular target: T1, UDP-glucuronosyltransferase 1A10; assay: Drug metabolism assessed as recombinant human UGT1A10 assessed as O-glucuronidation at 100 uM incubated for 60 mins by LC-MS/MS analysis; format: ADME; conditions: recombinant enzyme, 1 h
[4] = molecular target: T3, UDP-glucuronosyltransferase 2B7 (Homo sapiens, UniProt P16662); assay: Drug metabolism assessed as recombinant human UGT2B7 assessed as O-glucuronidation measured as inhibition constant at 10 to 400 uM incubated for 60 mins by LC-MS/MS analysis
T3 sequence (P16662 whole entry): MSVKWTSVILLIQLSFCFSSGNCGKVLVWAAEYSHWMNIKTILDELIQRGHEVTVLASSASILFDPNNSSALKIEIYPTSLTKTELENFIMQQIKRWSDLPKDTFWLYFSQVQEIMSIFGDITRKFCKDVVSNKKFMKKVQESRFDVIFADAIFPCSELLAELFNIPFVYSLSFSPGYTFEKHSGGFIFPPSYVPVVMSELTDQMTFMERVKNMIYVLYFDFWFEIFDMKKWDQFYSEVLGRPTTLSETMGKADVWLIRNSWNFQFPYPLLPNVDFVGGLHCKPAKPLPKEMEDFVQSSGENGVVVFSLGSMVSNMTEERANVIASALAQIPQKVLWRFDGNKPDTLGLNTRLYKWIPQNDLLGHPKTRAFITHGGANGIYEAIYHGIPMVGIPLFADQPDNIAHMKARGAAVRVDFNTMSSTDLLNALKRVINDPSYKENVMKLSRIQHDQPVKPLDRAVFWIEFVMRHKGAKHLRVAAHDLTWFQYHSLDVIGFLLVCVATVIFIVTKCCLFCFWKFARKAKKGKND

[5] = molecular target: T4, UDP-glucuronosyltransferase 2B4 (Homo sapiens, UniProt P06133); assay: Drug metabolism assessed as recombinant human UGT2B4 assessed as N-glucuronidation at 100 uM incubated for 60 mins by LC-MS/MS analysis; format: ADME; conditions: recombinant enzyme, 1 h
T4 sequence (P06133 whole entry): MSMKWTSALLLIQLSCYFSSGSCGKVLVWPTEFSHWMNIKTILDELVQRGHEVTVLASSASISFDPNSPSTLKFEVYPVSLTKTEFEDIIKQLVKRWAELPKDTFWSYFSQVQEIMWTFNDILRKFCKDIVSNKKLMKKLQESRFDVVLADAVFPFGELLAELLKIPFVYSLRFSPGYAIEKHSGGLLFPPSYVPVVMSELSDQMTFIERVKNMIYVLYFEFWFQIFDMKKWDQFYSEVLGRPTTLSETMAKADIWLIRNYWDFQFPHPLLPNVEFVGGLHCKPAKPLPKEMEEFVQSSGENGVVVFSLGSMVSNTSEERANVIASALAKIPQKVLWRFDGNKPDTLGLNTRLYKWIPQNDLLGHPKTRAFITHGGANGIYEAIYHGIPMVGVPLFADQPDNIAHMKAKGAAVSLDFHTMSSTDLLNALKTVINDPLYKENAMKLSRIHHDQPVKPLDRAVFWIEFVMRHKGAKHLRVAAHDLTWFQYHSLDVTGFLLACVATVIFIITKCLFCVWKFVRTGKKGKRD

[6] = molecular target: T5, UGT1A4 (Homo sapiens, UniProt P22310); assay: Drug metabolism assessed as recombinant human UGT1A4 assessed as O-glucuronidation at 10 to 400 uM incubated for 60 mins by LC-MS/MS analysis
T5 sequence (P22310 whole entry): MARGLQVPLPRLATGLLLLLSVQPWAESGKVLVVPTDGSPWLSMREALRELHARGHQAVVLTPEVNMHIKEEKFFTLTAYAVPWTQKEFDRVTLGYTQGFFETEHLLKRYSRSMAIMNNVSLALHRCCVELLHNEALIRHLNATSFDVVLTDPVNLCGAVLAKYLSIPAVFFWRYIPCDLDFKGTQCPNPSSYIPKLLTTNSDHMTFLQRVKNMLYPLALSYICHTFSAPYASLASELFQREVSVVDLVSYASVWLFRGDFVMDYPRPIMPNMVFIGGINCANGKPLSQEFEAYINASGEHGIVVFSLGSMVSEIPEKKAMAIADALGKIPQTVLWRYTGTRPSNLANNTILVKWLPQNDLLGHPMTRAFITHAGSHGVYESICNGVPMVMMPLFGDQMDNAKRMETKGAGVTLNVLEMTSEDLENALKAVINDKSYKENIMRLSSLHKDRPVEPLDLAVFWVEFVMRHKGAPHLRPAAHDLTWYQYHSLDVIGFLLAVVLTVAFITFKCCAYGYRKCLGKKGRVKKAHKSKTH

Drug metabolism [1]: metabolite_not_detected
Drug metabolism [2]: metabolite_not_detected
Drug metabolism [3]: metabolite_not_detected
Ki [4]: 590 µM
Drug metabolism [5]: metabolite_not_detected
Km at 1 h, 400 µM [6]: 64 µM
SMILES: O=C(CCCN1CCC(O)(c2ccc(Cl)cc2)CC1)c1ccc(F)cc1 [HALOPERIDOL]
